Literature values, collected in patent publication US12167995B2, “[((1R,2S,5R)-2-isopropyl-5-methyl-cyclohexanecarbonyl)-amino]-acetic acid isopropyl ester for treatment of chronic cough” (AXALBION SA, priority 2019, dated 2024).
“Also recorded” adds a separate entry of the source. Like-named read-outs stand apart in the source and are kept apart here.

Experiments:
[1] = test system: isolated guinea pig vagal nerves; settings: Maher et al., 2014; cited from earlier work
[2] = test system: acute cough induced by capsaicin; settings: MK-7264: in RCC patients or in healthy subjects; cited from earlier work
[3] = test system: refractory chronic cough (RCC); settings: cited from earlier work

Row | SMILES | TRPM8 dependence of inhibition of capsaicin-induced response [1] | effect on acute cough induced by capsaicin [2] | effect on cough frequency in RCC patients ([3]; human, in vivo) | patients with adverse events related to taste (dysgeusia, hypogeusia, or ageusia) ([3]; 50 mg per day) [%] | patients with adverse events related to taste (dysgeusia, hypogeusia, or ageusia) ([3]; 1200 mg per day) [%] | effect on VAS scores in RCC patients ([3]; human, in vivo)
1 | CC(C)[C@@H]1CC[C@@H](C)C[C@H]1O [menthol, (1R,2S,5R)-2-isopropyl-5-methyl-cyclohexanol] | in a TRPM8-independent way | – | – | – | – | –
2 | O=C(Nc1ccccc1Br)N[C@@H]1CCN(c2ccc(C(F)(F)F)cn2)C1 [SB-705498] | – | inhibit acute cough induced by capsaicin | do not reduce cough frequency in RCC patients | – | – | –
3 | COc1cc(C(C)C)c(Oc2cnc(N)nc2N)cc1S(N)(=O)=O [MK-7264] | – | not effective for acute cough induced by the tussive stimulus capsaicin | efficient in reducing cough frequency; also recorded: efficient in decreasing cough frequency in RCC patients | 81 | 100 | poorly effective in improving the VAS scores
